Results published in patent EP1431294A1, “VASCULAR WALL-SELECTIVE ACAT INHIBITOR” (Kowa Company Ltd., priority 2001, dated 2003).
Values belong to the compound of their own block, whether it stands above or below them.

Tests used:
[1] = test system: lipid-loaded model of F1B hamster; experiment: Arteriosclerotic model animal test (lipid-loaded F1B hamster); details: for dose from which suppression of lipid accumulation was effective / plasma cholesterol at doses effective in suppression of lipid accumulation: F1B hamsters; for dose from which suppression of lipid accumulation was effective: drug in high-fat feed; for dose from which suppression of lipid accumulation was effective / CE/FC Adrenal Gland / CE/FC Lipid Accumulation to Artery / CE/FC Liver / CE/FC Small Intestine: 10 weeks; for plasma cholesterol at doses effective in suppression of lipid accumulation: total cholesterol in plasma relative to control, Dunnett's test; for CE/FC Adrenal Gland / CE/FC Lipid Accumulation to Artery / CE/FC Liver / CE/FC Small Intestine: ratio to control (1.0)
Method: Male hamsters of a Bio F1B strain purchased from Nippon Charles River were randomly grouped so that each group comprised six. As from eight weeks age, they were loaded with a high-fat feed (0.3% of cholesterol and 10% of coconut oil) for ten weeks while the drug was administered by mixing with the feed. After ten weeks, blood was collected and cholesterol in plasma was measured. Further, arterywas excised after fixingbyperfusion with a 10% formalin solution. This was incised, lipid which was accumulated in the artery was stained with Oil Red O and the stained area was measured using an image analyzer.
A high-fat feed (0.3% of cholesterol and 10% of coconut oil) was prepared by way of compounding ratio of cholesterol : coconut oil : feed (CE-2) = 0.03:1:9. Incidentally, a high-fat feed was given to the control group and the administered period was 10 weeks.
Hamster under a non-fasted state was anesthetized, subj ected to an abdominal section to expose the abdominal artery and about 2.5 mL of blood were collected. The collected blood was centrifuged at 3, 000 rpm for 15 minutes to collect the plasma and then total cholesterol (TC) and free cholesterol (FC) in plasma were determined by a Cholesterol E-Test Wako (a cholesterol oxidase DAOS method) and a Free Cholesterol E-Test Wako (a cholesterol oxidase DAOS method), respectively.
About 500 mg of liver, small intestine and adrenal body were excised and washed with a physiological saline solution and lipid concentration in the tissues was measured. In the measurement, 10 mL of chloroform : methanol (2:1) as an extracting solution for lipid in the tissue were placed in the liver and the small intestine, homogenized at 3,000 rpm using a Polytron Homogenizer PT 3100 and allowed to stand at 4°C for one night. The extract was centrifuged at 1,500 rpm for 15 minutes, 0.2 mL of the supernatant liquid was evaporated to dryness using a vacuum pump, the residue was dissolved in 50 µL of isopropanol and each lipid was subjected to the same kits whereupon TC and FC were quantified. With regard to the adrenal body, it was finely cut using scissors and 0.5 mL of chloroform : methanol (2:1) was added thereto followed by being allowed to stand at 4°C for one night. That was centrifuged at 1,500 rpm for 15 minutes, 0.2 mL of the supernatant liquid was evaporated to dryness using a vacuum pump, the residue was dissolved in 50 µL of isopropanol and each lipid was subjected to the same kits whereupon TC and FC were quantified.
With regard to the total cholesterol (TC) in plasma in the group to which the drug was administered, the relative ratio to TC in the control group was used as an indicator while, with regard to the tissue, difference between TC and FC was defined as CE (cholesterol ester) and the lipid-constituting ratio, CE/FC, in each organ was determined whereupon their relative ratio to each control was calculated and used as an indicator. Thus, in those indicators, the control group was defined as 100% and the calculation using the following formula was carried out so as to use a plasma TC lowering action by ACAT inhibitory action to liver and small intestine of the group to which the drug was administered as an indicator and also to use the variation of CE/FC ratio by an ACAT inhibitory action to each organ as an indicator. Indicator (%) for total cholesterol in plasma = [(TC of drug-administered group)/(TC of the control group)] × 100 [formula] Indicator (%) for lipid constituting ratio in each organ = [(CE/FC of drug-administered group)/(CE/FC of the control group)] × 100 [formula]
After collection of the blood, a 18-G injection needle was inserted into apex and perfused with a physiological saline solution (120 mmHg) for about 5minutes. It was further perfused with a 10% neutral formalin buffer (120 mmHg) for about 5 minutes. Bulbar and thoracic artery was excised and fixed in a 10% formalin buffer.

[2] = target: T1, ACAT (Mus musculus, UniProt Q61263); experiment: ACAT inhibitory activity test in J774 cells (anti-foaming action); assay type: cell-based
T1 construct: J774 cells or HepG2 cells were sown on a 24-well plate; endogenous in cells; host or cells: J774 cells
T1 sequence (Q61263 1-540): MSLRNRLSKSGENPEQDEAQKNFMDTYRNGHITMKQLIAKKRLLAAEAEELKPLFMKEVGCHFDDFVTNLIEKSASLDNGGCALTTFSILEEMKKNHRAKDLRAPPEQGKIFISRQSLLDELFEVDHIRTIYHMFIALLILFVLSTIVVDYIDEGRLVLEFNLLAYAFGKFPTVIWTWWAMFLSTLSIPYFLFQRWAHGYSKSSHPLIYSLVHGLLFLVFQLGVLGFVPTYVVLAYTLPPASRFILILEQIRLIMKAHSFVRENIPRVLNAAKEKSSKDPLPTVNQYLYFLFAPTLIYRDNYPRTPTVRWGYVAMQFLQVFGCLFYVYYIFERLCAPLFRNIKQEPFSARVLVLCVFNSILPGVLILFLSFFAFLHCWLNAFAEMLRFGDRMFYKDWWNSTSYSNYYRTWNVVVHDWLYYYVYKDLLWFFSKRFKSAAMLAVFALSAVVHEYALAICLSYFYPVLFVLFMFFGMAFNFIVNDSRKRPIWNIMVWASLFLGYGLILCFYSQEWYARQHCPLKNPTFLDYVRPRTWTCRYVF
Method: (§1) J774 cells or HepG2 cells were sown on a 24-well plate and incubation was carried out at 37°C for 24 hours in a 5% CO2 incubator using a Dulbecco's modified Eagle's medium for J774 cells and an Eagle's minimum essential medium for HepG2 cells (where both media contained 10% of fetal bovine serum). […] The medium was taken out, washed with PBS twice, extracted with 1.5 mL of hexane-isopropanol (3:2) and concentrated to dryness. The extract was dissolved in isopropanol containing 0.2 mL of 10% Triton X-100 and then total cholesterol (TC) and free cholesterol (FC) were determined by a Cholesterol E Test Wako (Wako Pure Chemical) and a Free Cholesterol E Test Wako (Wako Pure Chemical), respectively. The residue of the cell after extraction was solubilized with 0.25 mL of 2N NaOH at 37°C for 30 minutes and protein was determined by a BCA Protein Assay Reagent (Pierce). From the differencebetween TC and FC, amount of cholesterolester per protein was calculated and, from the comparative calculation with the control, IC50 value was determined.

[3] = test system: ACAT; experiment: ACAT inhibitory activity test in HepG2 cells; assay type: cell-based; details: 25-hydroxycholesterol 10 µg/mL, 18 hours, cholesterol ester per protein
Method: as §1

[4] = Oral absorption test in rats under a fed condition (plasma concentration); assay type: in vivo; details: for AUC(0-inf) / Cmax: rat, plasma, po, 30 mg/kg, rats, fed, oral 30 mg/kg
Method: A solution of the compound of the present invention (dissolved in a mixture of water : PEG 400 = 1:4) or a suspension in 0.5% methyl cellulose (MC) was compulsorily administered per os at. the dose of 30 mg/kg to three rats under a fed condition. Blood after the administration was periodically collected and its concentration in plasma was measured.
The organic layer (upper layer) was collected, the solvent was evaporated in a nitrogen stream, the residue was dissolved in 0.2 mL of a mobile phase (refer to the following) and 80 µL thereof were measured under the following analytical conditions.
The organic layer was collected, the solvent was evaporated in a nitrogen stream, the residue was dissolved in 0.2 mL of a mobile phase (refer to the following) and 80 µL thereof were measured under the following condition for high-performance liquid chromatography. Condition for detection: • (Detector: Single-stage quadrupole mass spectrometer • Ionization method: Atmospheric pressure chemical ionization method • Temperature of nebulizer: 475°C • Corona voltage: 3 kV • Monitoring ion: m/z 569 (hydrogen addition ion of the compound of Example 78), 549 (hydrogen addition ion of the compound of Example 85)) Condition for separation: • (Column: Symmetry RP8 manufactured by Waters (3.0 mmφ × 150 mm) • Temperature of column: 45°C • Mobile phase: a solution where 0.1% ammonium formate (pH 4)/methanol/acetonitrile are mixed in […] • Flow rate: 0.8 mL/min)
To 150 µL of plasma were added a 0.1 mol/L aqueous solution of sodium hydroxide and 0.2 mL of an analogous compound (500 ng/mL of the compound of Example 28 of the Japanese Patent Application No. 8/158,743, i.e. 8-(benzimidazol-2-ylthio)-N-(2,6-diisopropylphenyl)octanamide as an internal standard, stirred and extracted with 6 mL of an isopropanol/hexane (5: 95) solution. The organic layer was collected, the solvent was evaporated in a nitrogen stream, the residue was dissolved in 0.2 mL of a mobile phase (refer to the following) and 80 µL thereof were measured under the following condition for high-performance liquid chromatography.

[5] = Water solubility in liquid I of the Japanese Pharmacopoeia; assay type: physicochemical
[6] = Oral absorption test in rats under a fed condition (plasma concentration); assay type: in vivo; details: rat, 30 mg/kg, medium 0.05N (Aq HCl)

SMILES: CC(C)c1cc(C(C)C)c(CC(=O)NS(=O)(=O)Oc2c(C(C)C)cccc2C(C)C)c(C(C)C)c1 [Cl-1011]
dose from which suppression of lipid accumulation was effective [1]: ≥ 1 mg/kg
plasma cholesterol at doses effective in suppression of lipid accumulation [1]: accompanied by a significant decrease of plasma cholesterol
CE/FC Adrenal Gland ([1]; dose 0.1 mg/kg in feed): 0.98
CE/FC Lipid Accumulation to Artery ([1]; dose 0.1 mg/kg in feed): 0.73
CE/FC Liver ([1]; dose 0.1 mg/kg in feed): 1.03
CE/FC Small Intestine ([1]; dose 0.1 mg/kg in feed): 0.92
CE/FC Adrenal Gland ([1]; dose 0.3 mg/kg in feed): 1.03
CE/FC Lipid Accumulation to Artery ([1]; dose 0.3 mg/kg in feed): 0.81
CE/FC Liver ([1]; dose 0.3 mg/kg in feed): 0.74
CE/FC Small Intestine ([1]; dose 0.3 mg/kg in feed): 0.82
CE/FC Adrenal Gland ([1]; dose 1 mg/kg in feed): 0.62
CE/FC Lipid Accumulation to Artery ([1]; dose 1 mg/kg in feed): 0.35
CE/FC Liver ([1]; dose 1 mg/kg in feed): 0.37
CE/FC Small Intestine ([1]; dose 1 mg/kg in feed): 0.60
CE/FC Adrenal Gland ([1]; dose 3 mg/kg in feed): 0.24
CE/FC Lipid Accumulation to Artery ([1]; dose 3 mg/kg in feed): 0.15
CE/FC Liver ([1]; dose 3 mg/kg in feed): 0.17
CE/FC Small Intestine ([1]; dose 3 mg/kg in feed): 0.08
CE/FC Adrenal Gland ([1]; dose 10 mg/kg in feed): 0.28
CE/FC Lipid Accumulation to Artery ([1]; dose 10 mg/kg in feed): 0
CE/FC Liver ([1]; dose 10 mg/kg in feed): 0.07
CE/FC Small Intestine ([1]; dose 10 mg/kg in feed): 0
difference of selectivities in each of the tissues ([1]; suppressing rate of lipid accumulation vs CE/FC ratio in liver, small intestine, adrenal body): a significant difference of selectivities was not found

IC50 ([2]; J774 cells, 25-hydroxycholesterol 10 µg/mL, 18 hours, cholesterol ester per protein): 0.46 µM
lowering of ACAT inhibitory activity (J774) ([2]; compared with the compound of Example 85 (19 nM)): about 24 fold
SMILES: CC(C)c1ccc(O)c(C(C)C)c1NC(=O)CN1CCN(CCSc2nc3cccc(C(F)(F)F)c3o2)CC1 [Comparative Compound, 2-[4-[2-(7-trifluoromethylbenzoxazol-2-ylthio)ethyl]piperazin-1-yl]-N-(2,6-diisopropyl-3-hydroxyphenyl)acetamide]

macrophage selectivity (IC50 (HepG2)/IC50 (J774)) [2]: about 45 fold
IC50 [3]: 2.9 µM
improvement of oral absorption ([4]; compared with Example 85, medium 0.5% methyl cellulose (MC) suspension, rats 30 mg/kg): about 9.4 fold
increase in oral absorption ([4]; compared with Example 85, medium water/PEG 400 (1:4), rats 30 mg/kg): about 8 fold
AUC(0-inf) ([4]; medium 0.5% MC Suspension): 639 ng·h/mL
Cmax ([4]; medium 0.5% MC Suspension): 167 ng/mL
AUC(0-inf) ([4]; medium PEG 400: Water (4:1)): 486 ng·h/mL
Cmax ([4]; medium PEG 400: Water (4:1)): 141 ng/mL
increase of solubility ([5]; compared with the lead compound (Example 85)): 5 fold
solubility ([5]; pH 1.2, simulated gastric fluid): 500 µg/mL
SMILES: CC(C)c1cc(O)cc(C(C)C)c1NC(=O)CN1CCN(CCSc2nc3cccc(C(F)(F)F)c3o2)CC1.Cl [Compound of the Invention, 2-[4-[2-(7-trifluoromethylbenzoxazol-2-ylthio)ethyl]piperazin-1-yl]-N-(2,6-diisopropyl-4-hydroxyphenyl)acetamide hydrochloride]
dose from which suppression of lipid accumulation was effective [1]: ≥ 3 mg/kg
plasma cholesterol at doses effective in suppression of lipid accumulation [1]: without a significant decrease of plasma cholesterol
CE/FC Adrenal Gland ([1]; dose 3 mg/kg in feed): 1.02
CE/FC Lipid Accumulation to Artery ([1]; dose 3 mg/kg in feed): 0.69
CE/FC Liver ([1]; dose 3 mg/kg in feed): 1.08
CE/FC Small Intestine ([1]; dose 3 mg/kg in feed): 1.16
CE/FC Adrenal Gland ([1]; dose 10 mg/kg in feed): 1.11
CE/FC Lipid Accumulation to Artery ([1]; dose 10 mg/kg in feed): 0.33
CE/FC Liver ([1]; dose 10 mg/kg in feed): 0.88
CE/FC Small Intestine ([1]; dose 10 mg/kg in feed): 1.02
CE/FC Adrenal Gland ([1]; dose 30 mg/kg in feed): 0.89
CE/FC Lipid Accumulation to Artery ([1]; dose 30 mg/kg in feed): 0.21
CE/FC Liver ([1]; dose 30 mg/kg in feed): 0.60
CE/FC Small Intestine ([1]; dose 30 mg/kg in feed): 0.91
CE/FC Adrenal Gland ([1]; dose 100 mg/kg in feed): 0.52
CE/FC Lipid Accumulation to Artery ([1]; dose 100 mg/kg in feed): 0.17
CE/FC Liver ([1]; dose 100 mg/kg in feed): 0.24
CE/FC Small Intestine ([1]; dose 100 mg/kg in feed): 0.20

AUC(0-inf) [6]: 295 ng·h/mL
Cmax [6]: 110 ng/mL
SMILES: CC(C)c1cccc(C(C)C)c1NC(=O)CN1CCN(CCSc2nc3ccccc3o2)CC1 [Example 1, 2-[4-[2-(benzoxazol-2-ylthio)ethyl]piperazin-1-yl]-N-(2,6-diisopropylphenyl) acetamide]
